Test results taken from publication PMC7849180 (Frontiers in Pharmacology, 2020).

Assays:
[1] = PK, 7-day intragastric dosing; type: in vivo, rats; details: for AUC0-t / AUC0-∞ / Cmax / Tmax / t1/2: 30.5 mg/kg (multiple dose)
Procedure: After 7 consecutive days of continuous intragastric administration (30.5 mg/kg once a day) of ZG0128 in rats, the plasma concentration reached a steady state on day […]
values obtained after the single-dose administration, respectively. The Cmax and AUC0-t of the metabolite ZG0245 were 1.19 and 1.52 times the values obtained after the single-dose administration, respectively. […]
consecutive days of administration, there was no significant accumulation of ZG0163 and the metabolite ZG0245 in rats. The pharmacokinetic parameters obtained after […]
Table 12. Pharmacokinetic parameters of ZG0163 in rats given different doses of ZG0128 via oral gavage (n = 6, male:female=1:1).
Dosage Gender Tmax Cmax AUC0-t AUC0-∞ MRT t1/2

[2] = PK, single intragastric dose; type: in vivo, rats
Procedure: (§1) Suzhou Zelgen Biopharmaceuticals Co., Ltd. Jaktinib Hydrochloride Tablets Chemical Drug Class 1 New Drug […]
Gender Tma x Cma x AUC0-t AUC0-∞ MRT t1/2 […]
Pharmacokinetic Study of Single-Dose Intragastric Administration in […]
After a single intragastric administration of 15.3, 30.5 and 61 mg/kg of ZG0128 […]
drug in three dose groups were 5.74, 8.33 and 12.4 μg/mL, respectively. […]
ZG0245 was lower than the proportional increase in dose, the increase in the AUC0-t of ZG0163 was directly proportional to the increase in dose, and the increase in the AUC0-t of the metabolite ZG0245 was slightly higher than the proportional increase in dose. Based on the average value of AUC0-t, the absolute bioavailability of the drug in rats receiving a single intragastric administration of 15.3 mg/kg of […] was 40.0%. […]

[3] = test system: ERK; experiment: Phosphorylation of Elk-1 by ERK; type: biochemical
Description: Suzhou Zelgen Biopharmaceuticals Co., Ltd. Jaktinib Hydrochloride Tablets Chemical Drug Class 1 New Drug has been completed. The ongoing toxicity tests include a long-term 39-week toxicity test in Beagle dogs by oral administration, a reproductive toxicity test in rats during the teratogenic sensitive period, and a reproductive toxicity test in rabbits during the teratogenic sensitive period.
Preclinical Pharmacodynamic Study
Study on the in vitro Pharmacodynamic Effects of ZG0163 at the […]
In this study, the effects of ZG0163 was similar to those of positive control compounds, ZG0164 and ZG0178.
Study on the in vitro Pharmacodynamic Effects of ZG0163 at the Cellular Level (Ba/F3-EpoR-JAK2V617F cells)
JAK2V617F cell line, the compound ZG0163 was able to induce apoptosis of pathogenic cells and eliminate abnormal cell proliferation by inhibiting the JAK-STAT signaling pathway, thus achieving treatment efficacy in myeloproliferative neoplasms. […]
cell line, manifested as significant inhibition of phosphorylation of JAK2 and its downstream signaling proteins ERK and STAT5. The effects of ZG0163 was similar to those of positive control compounds, ZG0164 and ZG0178.
EpoR-JAK2V617F, which was similar to those of positive control compounds, ZG0164

[4] = test system: JAK2 signaling pathway; experiment: JAK2 signaling in NSG mice injected with HCD-57-JAK2V617F cells; type: in vivo; details: single 200 mg/kg intraperitoneally, 4 h
Procedure: as §1
cells at a concentration of 1 μM. […]
effectively affect the primary cells harboring the JAK2V617F mutation in patients with […]
In Vivo Pharmacodynamic Study of ZG0128 in Mouse Model of Myeloproliferative Neoplasm
Primary myelofibrosis (PMF) is characterized by the formation of bone marrow fibrous tissues (scar-like) caused by the abnormal proliferation of three types of cells (platelets, white blood cells, and red blood cells). At present, there is still no particularly effective treatment for these diseases. JAKV617F transgenic mice and JAK2V617F bone marrow transplanted mice can develop the pathological characteristics of myeloproliferative neoplasm, which can be used to effectively evaluate the efficacy of drugs used in the treatment of myeloproliferative neoplasms.
HCD-57-JAK2V617F cells were intravenously injected into NSG mice. Three weeks later, the mice were injected intraperitoneally with a single dose of 200 mg/kg of compound ZG0128, and euthanized 4 h after drug administration. The results of […]
nucleated cells in spleen were HCD-57-JAK2V617F transplanted cells. Western blot […]
the phosphorylation of downstream major signaling proteins of JAK2, i.e., ERK1/2, […]
inhibit the JAK2 signaling pathway in vivo. […]

In the case of Jaktinib, the AUC0-t ([1]; Female) is reported as 67.6 ± 27.6 µg·h/mL, the “AUC0-∞” value ([1]; Female) is reported as 67.8 ± 27.8 µg·h/mL and the Cmax ([1]; Female) is reported as 11.0 ± 4.22 µg/mL. It also gave a Tmax ([1]; Female) of 1.0 h, a t1/2 ([1]; Female) of 1.81 ± 1.55 h and an AUC0-t ([1]; Male) of 35.7 ± 13.5 µg·h/mL. For the same compound, the “AUC0-∞” value ([1]; Male) was 36.0 ± 13.8 µg·h/mL, the Cmax ([1]; Male) was 6.34 ± 1.23 µg/mL and the Tmax ([1]; Male) was 1.0 (1.0-2.0) h. The t1/2 ([1]; Male) was 2.15 ± 0.62 h, the AUC0-t ([1]; Overall) was 51.7 ± 26.1 µg·h/mL and the “AUC0-∞” value ([1]; Overall) was 51.9 ± 26.2 µg·h/mL. For the same compound, the Cmax ([1]; Overall) was 8.67 ± 3.77 µg/mL, the Tmax ([1]; Overall) was 1.0 (1.0-6.0) h and the t1/2 ([1]; Overall) was 1.98 ± 1.07 h. The AUC0-t ([2]; 15.3 mg/kg ZG0128, Female) was 19.4 ± 7.5 µg·h/mL, the “AUC0-∞” value ([2]; 15.3 mg/kg ZG0128, Female) was 19.4 ± 7.5 µg·h/mL and the Cmax ([2]; 15.3 mg/kg ZG0128, Female) was 4.82 ± 1.25 µg/mL. The MRT ([2]; 15.3 mg/kg ZG0128, Female) was 2.82 ± 0.60 h, the Tmax ([2]; 15.3 mg/kg ZG0128, Female) was 0.5 (0.5-1.0) h and the t1/2 ([2]; 15.3 mg/kg ZG0128, Female) was 0.93 ± 0.26 h. For the same compound, the AUC0-t ([2]; 15.3 mg/kg ZG0128, Male) was 24.5 ± 11.3 µg·h/mL, the “AUC0-∞” value ([2]; 15.3 mg/kg ZG0128, Male) was 24.6 ± 11.3 µg·h/mL and the Cmax ([2]; 15.3 mg/kg ZG0128, Male) was 6.66 ± 2.13 µg/mL. The MRT ([2]; 15.3 mg/kg ZG0128, Male) was 2.45 ± 0.29 h, the Tmax ([2]; 15.3 mg/kg ZG0128, Male) was 1.0 (0.5-2.0) h and the t1/2 ([2]; 15.3 mg/kg ZG0128, Male) was 0.84 ± 0.20 h. The AUC0-t ([2]; 15.3 mg/kg ZG0128, Overall) was 21.9 µg·h/mL, the “AUC0-∞” value ([2]; 15.3 mg/kg ZG0128, Overall) was 22.0 ± 9.0 µg·h/mL and the Cmax ([2]; 15.3 mg/kg ZG0128, Overall) was 5.74 µg/mL. The MRT ([2]; 15.3 mg/kg ZG0128, Overall) was 2.63 ± 0.47 h, the Tmax ([2]; 15.3 mg/kg ZG0128, Overall) was 0.75 (0.5-2.0) h and the t1/2 ([2]; 15.3 mg/kg ZG0128, Overall) was 0.89 ± 0.21 h. The absolute bioavailability ([2]; 15.3 mg/kg, by AUC0-t) was 40.0%, the AUC0-t ([2]; 30.5 mg/kg ZG0128, Female) was 39.9 ± 13.6 µg·h/mL and the “AUC0-∞” value ([2]; 30.5 mg/kg ZG0128, Female) was 40.2 ± 13.2 µg·h/mL. The Cmax ([2]; 30.5 mg/kg ZG0128, Female) was 9.68 ± 3.40 µg/mL, the MRT ([2]; 30.5 mg/kg ZG0128, Female) was 3.46 ± 0.75 h and the Tmax ([2]; 30.5 mg/kg ZG0128, Female) was 2.0 (2.0) h. For the same compound, the t1/2 ([2]; 30.5 mg/kg ZG0128, Female) was 2.07 ± 2.24 h, the AUC0-t ([2]; 30.5 mg/kg ZG0128, Male) was 41.6 ± 19.7 µg·h/mL and the “AUC0-∞” value ([2]; 30.5 mg/kg ZG0128, Male) was 43.2 ± 21.9 µg·h/mL. For the same compound, the Cmax ([2]; 30.5 mg/kg ZG0128, Male) was 6.97 ± 1.15 µg/mL, the MRT ([2]; 30.5 mg/kg ZG0128, Male) was 3.95 ± 1.68 h and the Tmax ([2]; 30.5 mg/kg ZG0128, Male) was 1.0 (1.0-2.0) h. The t1/2 ([2]; 30.5 mg/kg ZG0128, Male) was 1.58 ± 0.75 h, the AUC0-t ([2]; 30.5 mg/kg ZG0128, Overall) was 40.8 µg·h/mL and the “AUC0-∞” value ([2]; 30.5 mg/kg ZG0128, Overall) was 41.7 ± 16.2 µg·h/mL. For the same compound, the Cmax ([2]; 30.5 mg/kg ZG0128, Overall) was 8.33 µg/mL, the MRT ([2]; 30.5 mg/kg ZG0128, Overall) was 3.70 ± 1.19 h and the Tmax ([2]; 30.5 mg/kg ZG0128, Overall) was 2.0 (1.0-2.0) h. For the same compound, the t1/2 ([2]; 30.5 mg/kg ZG0128, Overall) was 1.82 ± 1.52 h, the AUC0-t ([2]; 61 mg/kg ZG0128, Female) was 82.7 ± 31.0 µg·h/mL and the “AUC0-∞” value ([2]; 61 mg/kg ZG0128, Female) was 87.3 ± 31.0 µg·h/mL. For the same compound, the Cmax ([2]; 61 mg/kg ZG0128, Female) was 12.1 ± 2.6 µg/mL, the MRT ([2]; 61 mg/kg ZG0128, Female) was 4.87 ± 1.22 h and the Tmax ([2]; 61 mg/kg ZG0128, Female) was 4.0 (1.0-6.0) h. For the same compound, the t1/2 ([2]; 61 mg/kg ZG0128, Female) was 2.14 ± 0.31 h, the AUC0-t ([2]; 61 mg/kg ZG0128, Male) was 124 ± 58 µg·h/mL and the “AUC0-∞” value ([2]; 61 mg/kg ZG0128, Male) was 124 ± 58 µg·h/mL. For the same compound, the Cmax ([2]; 61 mg/kg ZG0128, Male) was 12.8 ± 1.7 µg/mL, the MRT ([2]; 61 mg/kg ZG0128, Male) was 6.20 ± 2.52 h and the Tmax ([2]; 61 mg/kg ZG0128, Male) was 2.0 (2.0-8.0) h. The t1/2 ([2]; 61 mg/kg ZG0128, Male) was 1.56 ± 0.59 h, the AUC0-t ([2]; 61 mg/kg ZG0128, Overall) was 103 µg·h/mL and the “AUC0-∞” value ([2]; 61 mg/kg ZG0128, Overall) was 106 ± 46 µg·h/mL. The Cmax ([2]; 61 mg/kg ZG0128, Overall) was 12.4 µg/mL, the MRT ([2]; 61 mg/kg ZG0128, Overall) was 5.54 ± 1.92 h and the Tmax ([2]; 61 mg/kg ZG0128, Overall) was 3.0 (1.0-8.0) h. The t1/2 ([2]; 61 mg/kg ZG0128, Overall) was 1.85 ± 0.53 h, the “Tmax, range over doses” value ([2]; 15.3, 30.5 and 61 mg/kg ZG0128) was 45 to 180 min and the “plasma elimination half-life t1/2, range over doses” value ([2]; 15.3, 30.5 and 61 mg/kg ZG0128) was 53.4 to 111 min. For the same compound, the “effect on phosphorylation of Elk-1 by ERK” value [3] was “significantly inhibited”.

With `Cl.Cl.O.[2H]C1([2H])COCC([2H])([2H])N1c1ccc(Nc2nccc(-c3ccc(C(=O)NCC#N)cc3)n2)cc1` [ZG0128, Jaktinib Dihydrochloride Monohydrate] the “day on which steady state was reached” value ([1]; 30.5 mg/kg once a day) was 5 days and the “phosphorylation of ERK1/2, Akt and STAT5 in splenocytes” value [4] was “significantly inhibited”.
